Counter-ions that a name gives are not always drawn.
Tests used:
[1] = system: ileum contraction induced by histamine; assay: Anti-anaphylaxis test: histamine-induced contraction of isolated ileum; design: species or system guinea pig
Procedure: A three-color guinea pig was used in the following experiment. The extracts of Flos Lonicerae, Fructus Forsythiae and Radix Scutellariae, both with supercritical fluid extraction and with subboiling aqueous extraction, were used as test drugs. Ebalin, an antihistamine, was used as the control drug.
The ileum of a guinea pig was taken and hung on a Magnus' bath. The basic contraction frequency of the ileum was recorded with the MacLab method. There was a total of four groups involved in this experiment: the histamine alone, the histamine plus Ebalin, the histamine plus the supercritical extract of Flos Lonicerae, Fructus Forsythiae and Radix Scutellariae, and the histamine plus sub-boiling aqueous extract. The test curves were respectively recorded after the administration of the histamine and the other test drugs. The inhibitory rate and exciting rate were calculated with the following formula: [formula]

Influenza A = assay: Inhibitory effect for virus, Cytopathic Effect (CPE) method, monolayer Holn cells; format: cell-based; design: key: “−”: Virus proliferation was inhibited and no pathologic change was found in the cells.; “+”: The cell had pathologic change
RSV [2] = assay: as above; format: cell-based; design: key: “−”: Virus proliferation was inhibited and no pathologic change was found in the cells.; “+”: The cell had pathologic change
ADV3 = assay: as above; format: cell-based; design: key: “−”: Virus proliferation was inhibited and no pathologic change was found in the cells.; “+”: The cell had pathologic change
HSV-II = assay: as above; format: cell-based; design: key: “−”: Virus proliferation was inhibited and no pathologic change was found in the cells.; “+”: The cell had pathologic change
Influenza virus A3 = assay: Anti-virus test: inhibition of virus-induced cytopathy in Hep-2 cells; format: cell-based; conditions: 125 μg/ml
[3] = system: parainfluenza virus I (HVJ); assay: as above; format: cell-based; conditions: 125 μg/ml
RSV [4] = assay: as above; format: cell-based; conditions: 125 μg/ml
herpes I virus (HSV-I) = assay: as above; format: cell-based; conditions: 125 μg/ml
[5] = system: Virus Pneumonia induced by influenza; assay: Anti-virus test in vivo: Virus Pneumonia induced by influenza; design: species or system Mice; conditions: dosage 0.07 g/kg
From the text: B. Anti-virus test in vivo

## CN(C)CCC(c1ccc(Br)cc1)c1ccccn1.O=C(O)/C=C\C(=O)O (stereo not shown) [Ebalin]
[1]; Table 13: histamine 3.3 × 10^−6 g/ml + test drug 1 × 10^−3 g/ml, histamine alone 271 ± 42
  Ileum contraction with histamine plus test drug: 181 ± 32 %
[1]; Table 14: histamine 3.3 × 10^−6 g/ml + 1 × 10^−6 g/ml, histamine alone 235.29 ± 35.30
  Ileum contraction with histamine plus test drug: 133.81 ± 405.5 %

## N=C(N)/N=C(\N)N1CCOCC1 [Moroxydine hydrochloride]
Influenza A; 1%, 10 mg/ml
  Inhibitory effect for the virus (CPE): +
Influenza A; 5%, 50 mg/ml
  Inhibitory effect for the virus (CPE): −
Influenza A; 10%, 100 mg/ml
  Inhibitory effect for the virus (CPE): −
Influenza A; 15%, 150 mg/ml
  Inhibitory effect for the virus (CPE): −
Influenza A; 20%, 200 mg/ml
  Inhibitory effect for the virus (CPE): −
RSV [2]; 1%, 10 mg/ml
  Inhibitory effect for the virus (CPE): +
RSV [2]; 5%, 50 mg/ml
  Inhibitory effect for the virus (CPE): +
RSV [2]; 10%, 100 mg/ml
  Inhibitory effect for the virus (CPE): +
RSV [2]; 15%, 150 mg/ml
  Inhibitory effect for the virus (CPE): +
RSV [2]; 20%, 200 mg/ml
  Inhibitory effect for the virus (CPE): +
ADV3; 1%, 10 mg/ml
  Inhibitory effect for the virus (CPE): +
ADV3; 5%, 50 mg/ml
  Inhibitory effect for the virus (CPE): +
ADV3; 10%, 100 mg/ml
  Inhibitory effect for the virus (CPE): +
ADV3; 15%, 150 mg/ml
  Inhibitory effect for the virus (CPE): +
ADV3; 20%, 200 mg/ml
  Inhibitory effect for the virus (CPE): +
HSV-II; 1%, 10 mg/ml
  Inhibitory effect for the virus (CPE): +
HSV-II; 5%, 50 mg/ml
  Inhibitory effect for the virus (CPE): +
HSV-II; 10%, 100 mg/ml
  Inhibitory effect for the virus (CPE): +
HSV-II; 15%, 150 mg/ml
  Inhibitory effect for the virus (CPE): +
HSV-II; 20%, 200 mg/ml
  Inhibitory effect for the virus (CPE): +

## NC(=O)c1ncn([C@@H]2O[C@H](CO)[C@@H](O)[C@H]2O)n1 [Ribavirin]
Influenza virus A3
  Anti-virus effect of Ribavirin: +
[3]
  Anti-virus effect of Ribavirin: +
RSV [4]
  Anti-virus effect of Ribavirin: +
Herpes I virus (HSV-I)
  Anti-virus effect of Ribavirin: +
[5]
  Inhibitive rate (100%): 24.68%
[5]; infection control 1.54 ± 0.25
  Lung index (X ± SD): 1.16 ± 0.15

Source: US20020168426A1, “Composition comprising extracts of flos lonicerae, fructus forsythiae and radix scutellariae, uses and preparation thereof” (priority 2000, published 2002)
